In US20260183302A1, “PDK1 REGULATORY COMPOUND AND COMPOSITION CONTAINING THE SAME” (PROVIBIO CO., LTD., priority 2024, published 2026):

Tested on: T cells isolated from mouse spleens
Experiment: T cell proliferation inhibition (CFSE flow cytometry, anti-CD3/anti-CD28 stimulation)
Type: cell-based, C57BL/6 mice
Conditions: three days
Protocol: To verify the T cell proliferation inhibitory effect of the compounds according to the present invention, the following experiment was performed based on flow cytometry analysis using carboxyfluorescein diacetate succinimidyl ester (CFSE), a fluorescent dye that binds to intracellular molecules via covalent bonds.
Spleens were extracted from 7-week-old C57BL/6 mice, ground, and then separated into single cells using a strainer (40 μm pore size, SPL). Red blood cells were removed using ACK (Ammonium-Chloride-Potassium) lysis buffer to isolate white blood cells.
Finally, using a MACS Magnetic Stand and LS column, T cells were isolated from the spleen.
The T cells isolated from the spleen were resuspended in 1 mL of free medium (RPMI-1640+200 U/mL penicillin+200 μg/mL streptomycin), and 0.3 μL of CFSE (10 mM) was added. The mixture was incubated at 37° C. for 5 minutes.
Free medium (10 mL) was added to stop the reaction, and the cells were centrifuged to obtain the cell pellet.
RPMI 1640 medium containing 10% FBS, 100 U/mL penicillin, 100 μg/mL streptomycin, and resuspended the cells. The cells were then seeded into a 96-well plate at a density of 2× 10^5 cells per well and activated with CD3 and CD28 antibodies (0.5 μg/mL each) to activate T cells.
The compound diluted in DMSO was added at concentrations of 10 nM, 100 nM, 1 μM, 10 μM, 30 μM, and 50 μM, with three wells per concentration, and cultured at 37° C. and 5% CO2 for three days. The cells were then analyzed using a FACS Canto instrument.
The proliferation inhibition rate (%) was calculated using the following formula: […]

SMILES | Proliferation inhibition rate (%) (concentration 1 μM) | Proliferation inhibition rate (%) (concentration 10 μM) | Proliferation inhibition rate (%) (concentration 30 μM) | Proliferation inhibition rate (%) (concentration 50 μM) | Proliferation inhibition rate (%) (concentration 100 nM) | Proliferation inhibition rate (%) (concentration 10 nM) | also measured
Nc1ncccc1C(=O)NCCCCCCCCCCCCN1CCC2CCCCC2C1 (centres unmarked) [Compound 16, 2-Amino-N-(12-(octahydroisoquinolin-2 (1H)-yl)dodecyl) nicotinamide] | 100.00 | 100.00 | 100.00 | 100.00 |  |  | 
Nc1ncccc1C(=O)NCCCCCCCCCCCCN1CCc2ccccc2C1 [Compound 17, 2-Amino-N-(12-(3,4-dihydroisoquinolin-2 (1H)-yl)dodecyl) nicotinamide] |  |  |  |  |  |  | Proliferation inhibition rate (%) (concentration 10 nM, listed as PBK-2024-004, 0.01 µM): 0.00%; Proliferation inhibition rate (%) (concentration 100 nM, listed as PBK-2024-004, 0.1 µM): −14.00%; Proliferation inhibition rate (%) (concentration 1 μM, listed as PBK-2024-004, 1 µM): 100.00%; Proliferation inhibition rate (%) (concentration 10 μM, listed as PBK-2024-004, 10 µM): 100.00%
CN(CCCCCCCCCCCCNC(=O)c1cccnc1N)C1CCCCC1 [Compound 34, 2-Amino-N-(12-(cyclohexyl(methyl)amino)dodecyl) nicotinamide] | 100.00 | 100.00 | 100.00 | 100.00 | 100.00 |  | 
CC1CN(CCCCCCCCCCCCNC(=O)c2cccnc2N)C(C)CN1.Cl (centres unmarked) [Compound 36, 2-Amino-N-(12-(2,5-dimethylpiperazin-1-yl)dodecyl) nicotinamide hydrochloride] | 100.00 | 100.00 | 100.00 | 100.00 | 100.00 |  | 
Nc1ncccc1C(=O)NCCCCCCCCCCCCN1CCC(O)CC1 [Compound 48, 2-Amino-N-(12-(4-hydroxypiperidin-1-yl)dodecyl) nicotinamide] | 100.00 | 100.00 | 100.00 | 100.00 | 100.00 |  | 
CN(CCCCCCCCCCCCNC(=O)c1cccnc1N)C(C)(C)C [Compound 53, 2-Amino-N-(12-(tert-butyl(methyl)amino)dodecyl) nicotinamide] | 100.00 | 100.00 | 100.00 | 100.00 | 100.00 |  | 
Nc1ncccc1C(=O)NCCCN1CCOCC1 [Compound 78, 2-amino-N-(3-morpholin-4-yl-propyl) nicotinamide] | −3.73 | 0.68 | 4.51 | 8.76 | −4.19 | −7.14 | 
COC1CCN(CCCCCCCCCCCCNC(=O)c2cccnc2N)CC1 [Compound 94, 2-amino-N-(12-(4-methoxypiperidin-1-yl)dodecyl) nicotinamide] | 100.00 | 100.00 | 100.00 | 100.00 | 100.00 |  | 
Nc1ncccc1C(=O)NCCCCCCCCCCCCN1CCN(C=O)CC1 [Compound 97, 2-amino-N-(12-(4-formylpiperazin-1-yl)dodecyl) nicotinamide] | 100.00 | 100.00 | 100.00 | 100.00 |  |  | 
CC(C)(C)OC(=O)NC1CCN(CCCCCCCCCCCCNC(=O)c2cccnc2N)CC1 [Compound 101, tert-Butyl (1-(12-(2-aminonicotinamido)dodecyl)piperidin-4-yl) carbamate] | 100.00 | 100.00 | 100.00 | 100.00 | 100.00 | −0.15 | 
CC(C)N1CCN(CCCCCCCCCCCCNC(=O)c2cccnc2N)CC1 [Compound 104, 2-Amino-N-(12-(4-isopropylpiperazin-1-yl)dodecyl) nicotinamide] | 100.00 | 100.00 | 100.00 | 100.00 | 100.00 | 100.00 | 
CC(C)(C)OC(=O)N1CCN(CCCCCCCCCCCCNC(=O)c2cccnc2N)CC1 [Compound 111, tert-butyl-4-(12-(2-aminonicotinamido)dodecyl) piperazine-1-carboxylate] | 100.00 | 100.00 | 100.00 | 100.00 | 100.00 | 0.00 | 
COC(=O)C1CCN(CCCCCCCCCCCCNC(=O)c2cccnc2N)C1 (centres unmarked) [Compound 116, Methyl-1-(12-(2-aminonicotinamido)dodecyl)pyrrolidine-3-carboxylate] |  |  |  |  |  |  | inhibition at 0.01 µM (Mus musculus, T-cell, 72 h, concentration 10 nM, read-out: Proliferation inhibition rate (%)): -1.9%; inhibition at 0.1 µM (Mus musculus, T-cell, 72 h, concentration 100 nM, read-out: Proliferation inhibition rate (%)): 26.2%; inhibition at 1 µM (Mus musculus, T-cell, 72 h, concentration 1 μM, read-out: Proliferation inhibition rate (%)): 100%; inhibition at 10 µM (Mus musculus, T-cell, 72 h, concentration 10 μM, read-out: Proliferation inhibition rate (%)): 100%; inhibition at 30 µM (Mus musculus, T-cell, 72 h, concentration 30 μM, read-out: Proliferation inhibition rate (%)): 100%; inhibition at 50 µM (Mus musculus, T-cell, 72 h, concentration 50 μM, read-out: Proliferation inhibition rate (%)): 100%
CC(C)(C)OC(=O)N[C@@H]1CCCN(CCCCCCCCCCCCNC(=O)c2cccnc2N)C1 [Compound 117, tert-butyl-(R)-(1-(12-(2-aminonicotinamido)dodecyl)piperidin-3-yl) carbamate] | 100.00 | 100.00 | 100.00 | 100.00 | 100.00 |  | 
Nc1ncccc1C(=O)NCCCCCCCCCCCCN1CCOC1=O [Compound 127, 2-amino-N-(12-(2-oxooxazolidin-3-yl)dodecyl) nicotinamide] |  | 100.00 | 100.00 | 100.00 |  |  | 
Nc1ncccc1C(=O)NCCCCCCCCCCCCNC1CCOC1 (centres unmarked) [Compound 128, 2-amino-N-(12-((tetrahydrofuran-3-yl)amino)dodecyl) nicotinamide] | 100.00 | 100.00 | 100.00 | 100.00 | 100.00 |  | 
CN1CCN(CCCCCCCCCCCCNC(=O)c2ccccc2C(=O)NC2CCCCC2)CC1 [Compound 191, N1-Cyclohexyl-N2-(12-(4-methylpiperazin-1-yl)dodecyl) phthalamide] | 7.39 | 93.26 | 100.00 | 100.00 | 0.00 | 0.00 | 
CN1CCN(CCCCCCCCCCCCNC(=O)c2ccnc(Cl)c2Cl)CC1 [Compound 198, 2,3-Dichloro-N-(12-(4-methylpiperazin-1-yl)dodecyl) isonicotinamide] | 20.12 | 100.00 | 100.00 | 100.00 | 9.41 | 5.35 | 
